Reference: patent US12629408B2, “Peptides with anti-tumor activity” (UNIVERSITA' DEGLI STUDI DI PADOVA, priority 2019, dated 2026)
Where two headings read alike, the source gives them in different places. Square brackets hold non-standard residues; d marks the D form. Ends that are not written are not given here. Ahx = NCCCCCC(=O)O; βAla = NCCC(=O)O

Assays:
[1] = system: non-tumor tissues; settings: mouse, in vivo
Excerpt: (§2) At the end of each experiment shown in FIGS. 2, 3 and 4, and described in Example 2, male and female Balb/c mice underwent a complete autopsy with the assistance of an anatomopathologist expert. […] The group of mice not receiving any peptide treatment (NaCl) acts as an additional control.
(§3) List of organs or tissues analyzed: heart, skeletal muscle, kidney, spleen, lung, liver, brain, intestine, pancreas, bone marrow, lymph nodes, thyroid gland, parathyroid glands, and adrenal glands.

[2] = system: murine colon carcinoma line CT26; assay: In vivo colon cancer, CT26 subcutaneous tumor, injection into the tumors (FIG. 1); design: species or system Balb/c mice
Experimental: (§1) 100,000 tumor cells from the murine colon carcinoma line CT26 were injected subcutaneously (in the right flank) to male Balb/c mice. The transplanted cells give rise to a subcutaneous tumor clearly visible from the outside in just over a week. Using this in vivo tumorigenesis procedure, we conducted three different experiments (described below) whose results are represented in FIGS. 1, 2 and 3.
At 8 days post-cell inoculation, the mice were divided into three groups (FIG. 1) and saline boluses (NaCl) without any other solute, or containing the active form of ACPP-HK2 resulting from the proteolytic cut (pepHK2, 2 nmol/injection), or finally containing the entire ACPP-HK2 (2 nmol/injection) were injected into the tumors. Each bolus consisted of 20 μl solution and was injected every 12 hours up to 60 hours. 72 hours after the start of the treatment, the mice were sacrificed, and the tumor volume was measured.

[3] = system: HeLa cervical cancer cell line; assay: Cell viability after treatment with ACPP-HK2 sequence variants; assay type: cell-based, human; settings: between 5 and 50 μM, 18 or 36 hours
Excerpt: FIGS. 9A and 9B report cell viability after treatment of tumor cells (HeLa cervical cancer cell line) at various concentrations and times with the peptides ACPP-HK2 (SEQ ID NO:1), ACPP-HK2 II (SEQ ID) NO: 8), ACPP-HK2 III (SEQ ID NO: 9) and ACPP-HK2 IV (SEQ ID NO:10).

[4] = system: murine breast cancer cell line 4T1; assay: In vivo breast cancer, 4T1 subcutaneous tumor, intraperitoneal injections (FIG. 4); design: species or system mice; settings: 4T1, intraperitoneal, 60 nmoles every 12 hours up to 60 hours
Experimental: In this experiment (FIG. 4), 200,000 murine breast cancer cell line 4T1 were injected subcutaneously into female mice. At 9 days post-inoculation of the cells, the mice were divided into two experimental groups and 60 nmoles of peptides (ACPP-HK2 or ACPP-SCR) dissolved in 500 μl of saline solution were injected intraperitoneally. The injections followed one the other every 12 hours up to 60 hours and at 72 hours the experiment ended.

[5] = system: murine colon carcinoma line CT26; assay: In vivo colon cancer, CT26 subcutaneous tumor, intraperitoneal injections (FIGS. 2, 3); design: species or system Balb/c mice
Experimental: as §1
Administration was performed every 12 hours by means of intraperitoneal injections of 500 μl each containing 30 nmoles of peptide (ACPP-HK2 or ACPP-SCR). […] Every 48 hours the size of the tumors was measured externally, and their volumes calculated.
In this experiment, a double dose of peptides (60 nmoles/injection) was administered compared to the second experiment, again by intraperitoneal injection.

[6] = system: non-tumor tissues; assay: Autopsy and histological evaluation of internal organs of treated mice
Excerpt: as §2, §3

MIASHLLAYFFTELN βA RRRRRRRRR PLGLAG Ahx EEEEEEEE (MIASHLLAYFFTELN[βAla]RRRRRRRRRPLGLAG[Ahx]EEEEEEEE) [ACPP-HK2]
histological characteristics of formalin-fixed sections of internal organs [1]: without finding any differences among different experimental groups (ACPP-SCR and ACPP-HK2) or any tissue alterations
tumor growth (tumor volume) ([2]; 2 nmol/injection into the tumors every 12 hours up to 60 hours, measured at 72 hours, vs saline): reduce tumor growth
efficacy on tumor growth, ACPP-HK2 compared with pepHK2 ([2]; 2 nmol/injection into the tumors, 72 hours): more effective
cell viability [3]: able to decrease cell viability of cancer cells
tumor growth [4]: almost blocked
tumor volume vs ACPP-SCR control ([4]; end at 72 hours): significantly smaller in volume than control tumors injected with ACPP-SCR
tumor volume vs ACPP-SCR control ([5]; 30 nmoles every 12 hours, after 48 and 96 hours): significantly smaller in volume than the control tumors injected with ACPP-SCR
tumor growth ([5]; 60 nmoles/injection every twelve hours up to the sixtieth hour): strongly reduces, up to almost blocking, tumor growth
toxic side effect for non-tumor tissues and the whole organism ([6]; expert's conclusion after autopsy and histology): no toxic side effect

SHLLAYFFTELN-GRKKRRQRRRG-PLGLAG-Ahx-EEEEEEEE (SHLLAYFFTELNGRKKRRQRRRGPLGLAG[Ahx]EEEEEEEE) [ACPP-HK2 III, variant ACPP-HK2 III of the peptide ACPP-HK2, 38-amino acid peptide]
cell viability [3]: able to decrease cell viability of cancer cells

SHLLAYFFTELNHD-RRRRRRRRR-PLGLAG-Ahx-EEEEEEEE (SHLLAYFFTELNHDRRRRRRRRRPLGLAG[Ahx]EEEEEEEE) [ACPP-HK2 IV, variant ACPP-HK2 IV of the peptide ACPP-HK2, 38-amino acid peptide]
cell viability [3]: able to decrease cell viability of cancer cells

SHLLAYFFTELN-RRRRRRRRR-PLGLAG-Ahx-EEEEEEEE (SHLLAYFFTELNRRRRRRRRRPLGLAG[Ahx]EEEEEEEE) [ACPP-HK2 II, variant ACPP-HK2 II of the peptide ACPP-HK2, 36-amino acid peptide]
cell viability [3]: able to decrease cell viability of cancer cells

VGAHAGEYGAEALER βA RRRRRRRRR PLGLAG Ahx EEEEEEEE (VGAHAGEYGAEALER[βAla]RRRRRRRRRPLGLAG[Ahx]EEEEEEEE) [ACPP-SCR, reference compound]
histological characteristics of formalin-fixed sections of internal organs ([6]; mice of the experiments of FIGS. 2, 3 and 4, heart, skeletal muscle, kidney, spleen, lung, liver, brain and others): without finding any differences among different experimental groups (ACPP-SCR and ACPP-HK2) or any tissue alterations
